# Data published in patent US6683162B2, “Targeted alpha particle therapy using actinium-255 conjugates” (Sloan Kettering Institute of Cancer Research, priority 2000, dated 2004).
# Legend:
# [1] = system: antigen positive cells (HL60); experiment: Cell based immunoreactivity assay, antigen positive cells; type: binding, human; details: HL60, antigen excess, on ice
# Method: (§1) A cell based immunoreactivity assay (binding of labeled antibody to antigen excess) was used to determine the percentage of HuM195 that retained its immunoreactivity after conjugation and purification. The assay was conducted with antigen positive cells (HL60, available from American Tissue Culture Collection [ATCC]) and antigen negative cells (Daudi, ATCC).
# (§2) The cells were centrifuged, the supernatant removed and the cells resuspended to a density of 10^8 cells/ml in 2% w/v bovine serum albumin in phosphate buffered saline, pH 7.2 (PBS). Aliquots of cell suspension ([…]) were transferred to microcentrifuge tubes placed on ice to which purified ^225Ac-HuM195-DOTA (3 ng) was added. The cell suspensions were incubated for 30 min, centrifuged and the supernatant containing any unbound ^225Ac-HuM195-DOTA was transferred to a second microcentrifuge tube of cell suspension. The second tube was incubated on ice for 30 min. The first cell pellets were washed with PBS and the cells and washes saved for γ emission counting. The second set of cell suspensions were centrifuged, the supernatant removed and the pellets were washed with PBS. The set of supernate, cell pellets and washes were saved for counting. The percentage of radioactivity that was associated with the cells was then determined.
# [2] = system: antigen negative cells (Daudi); experiment: Cell based immunoreactivity assay, antigen negative cells; type: binding; details: on ice
# Method: as §1, §2
# HL60 cells = experiment: In vitro internalization of 225Ac-HuM195-DOTA; type: cell-based, human; details: 37° C., in 5 hours
# Method: The internalizing ability of the purified ^225Ac-HuM195-DOTA was tested with HL60 cells. The cells were washed twice with complete media and then incubated for 20 min on ice in complete media containing 2% rabbit serum. The cells were washed twice with ice cold complete media and then resuspended in 5 ml of complete media at a density of 5×10^6 cells/ml. After placing the cell suspension on ice purified ^225Ac-HuM195-DOTA (15 ng) was added. After mixing a sample of the sample of the cell suspension as taken and the rest of the cell suspension was placed into a 37° C. incubator. At various time points samples of the cell suspensions were taken. The samples were centrifuged, the supernatant removed and the cells washed twice with ice cold PBS. Stripping buffer (50 mM glycine, 150 mM NaCl, pH 2.8) was added to the cells and allowed to incubate for 10 min at room temperature. The cells were centrifuged and the supernatant drawn off and saved for counting. The cell pellet was washed once with PBS and both the cell pellet and wash were saved for counting.
substance,measurement,setting,value
225Ac-HuM195-DOTA,activity associated with the cells (immunoreactivity),[1],74%
same,activity retained by the cells (immunoreactivity),[2],2%
same,activity internalized,HL60 cells,50%
